What was measured:
HilA = assay: qPCR of HilA down-regulation in Salmonella, reference gene 16S; type: cell-based, Salmonella enteric typhimurium DT104; conditions: individual synthetic biopeptides, 50 μg per assay
Excerpt: The cell-free supernatant was separated using Sephadex G75 resin. The samples were separated and collected into fractions: Fraction 1 (>163000 Da), Fraction 2 (163000-14500 Da), Fraction 3(14500-1300 Da), Fraction 4 (1300-110 Da), Fraction 5 (110-10 Da). The samples were collected and assayed by qPCR using Salmonella enteric typhimurium DT104 strain. The down-regulation of HilA was compared to the reference gene 16S.
The active fraction from G75 size exclusion chromatography was further separated using reverse phase chromatography. The fractions from the reverse phase: Fraction 1 (0-2 min), Fraction 2 (2-4 min), Fraction 3 (4-16 min), Fraction 4 (16-32 min), Fraction 5 (32-40 min), Fraction 6 (40-58 min). The fractions were dried and neutralized to remove acetonitrile and trifluoroacetic acid from the solvent. The dried fractions were assayed using the same qPCR assay conditions as above. The fractions were analyzed by de novo sequencing at the University of Guelph Advance Analytical center. The peptides from the active fractions of 6 batches were compared and common peptides from batches were deduced.

HylA = conditions: individual synthetic biopeptides, 50 μg per assay; reference gene GapA
Description: The La-5 cell-free supernatant used for these experiments was batch D4. […] Strain 1 alias UPEC99 and strain 2 alias UPEC804. The strains were cultured on LB agar. Two different media were tested LB and artificial urine medium.
The UPEC were grown for 4 hours in the presence of cell-free supernatant. The cells were harvested and the RNA was extracted. The RNA was treated with DNAse I to remove genomic DNA. The RNA was used as a template to make cDNA. The cDNA was assayed by qPCR and the gene expression was normalized to a reference gene and compared to a without cell-free media control.
The synthetic bio-peptides were analyzed at 50 μg per assay.

[1] = tested on: Staphylococcus aureus (strain alias LA-414M SPA t034); assay: Cefoxitin MIC testing with and without cell-free supernatant; type: cell-based; conditions: MRSA LA 414M, 0 mg/mL dried cell-free (cefoxitin only)
Excerpt: (§1) Three methicillin resistant Staphylococci (MRS) strains were used in these experiments: 1) Staphylococcus pseudintermedius (strain alias C260 22-2011 dtqa), a clinical isolate from a dog skin infection; 2) Staphylococcus aureus (strain alias LA-414M SPA t034), a livestock-associated strain isolated from beef purchased from a grocery store in Charlottetown, PEI, Canada; and 3) Staphylococcus aureus (strain alias 81M SPA t008), isolated from poultry meat purchased from a grocery store in Charlottetown, PEI, Canada. All three MRS strains were provided by the Atlantic Veterinary College (AVC) at the University of Prince Edward Island. The methicillin-resistance of these strains was confirmed by AVC staff using an oxacillin disk diffusion method. The strains were originally cultured on sheep blood agar slants, and then transferred to lysogeny broth agar plates. Cefoxitin resuspended in methanol was used for antibiotic resistance testing, and growth was tested in two different media types, standard Lysogeny Broth and standard BBL™ Cation-Adjusted Mueller-Hinton Medium (Becton, Dickinson and Company). The minimum inhibitory concentrations (MICs) of the cefoxitin was determined for each strain in each respective medium in the presence and absence of the cell-free supernatant. Assays were performed according to the Clinical and Laboratory Standards Institute (CLSI) guidelines for MIC testing of Staphylococcal species [CLSI, 2015] as well as the European Committee for Antimicrobial Susceptibility Testing (EUCAST) of the European Society of Clinical Microbiology and Infectious Diseases [EUCAST, 2003].
(§2) The protocol for MIC testing was as follows. The cell-free supernatants were resuspended in the respective media and filter sterilized through a […] pore size filter. The required concentration of dried cell free supernatant was weighed and added at concentrations ranging from 0-60 mg/mL. Cefoxitin was added to obtain final concentrations ranging from 0-250 μg/mL. […] Following incubation, microplates were read at 600 nm using a microplate reader. […]

[2] = tested on: Staphylococcus pseudintermedius (strain alias C260 22-2011 dtqa); assay: as above; type: cell-based; conditions: MSRP C260; Lysogeny Broth; 0 mg/mL dried cell-free (cefoxitin only)
Excerpt: as §1, §2

[3] = tested on: Staphylococcus aureus (strain alias 81M SPA t008); assay: Cefoxitin MIC testing with and without cell-free supernatant or its size exclusion fractions; type: cell-based
Excerpt: as §1, §2

Molecule	Fold down-regulation HilA (HilA) [Fold]	Fold down-regulation HylA (HylA) [Fold]	further results
YPPGGP	2.93	3.56	–
CVLPPK	3.75	3.20	–
LKPTPEGD	11.08	4.69	–
MALPPK	19.56	9.06	–
CO[C@@]1(NC(=O)Cc2cccs2)C(=O)N2C(C(=O)O)=C(COC(N)=O)CS[C@@H]21 [Cefoxitin]	–	–	Range of Cefoxitin concentration to inhibition growth to O.D. < 0.1 (cefoxitin MIC) ([1]; Lysogeny Broth): 30 to 40 µg/mL; Range of Cefoxitin concentration to inhibition growth to O.D. < 0.1 (cefoxitin MIC) ([1]; Mueller-Hinton Broth): 50 to 60 µg/mL; Range of Cefoxitin concentration to inhibition growth to O.D. < 0.1 (cefoxitin MIC) [2]: 125 to 175 µg/mL; Range of Cefoxitin concentration to inhibition growth to O.D. < 0.1 (cefoxitin MIC) ([3]; MRSA 81M, Lysogeny Broth, 0 mg/mL dried cell-free (cefoxitin only)): 75 to 125 µg/mL; Range of Cefoxitin concentration to inhibition growth to O.D. < 0.1 (cefoxitin MIC) ([3]; MRSA 81M, Mueller-Hinton Broth, 0 mg/mL dried cell-free (cefoxitin only)): 75 to 100 µg/mL; Range of Cefoxitin concentration to inhibition growth to O.D. < 0.1 (cefoxitin MIC) ([3]; Table 4, Staphylococcus aureus 81M, Untreated (0 mg/mL), cefoxitin only): 60 to 75 µg/mL
YPVEPF	0.68	1.03	–
HLLPLP	2.93	2.64	–
